Assays:
rpS6 = rpS6 phosphorylation in MCMV-infected MEFs, Western blot; assay type: cell-based, mouse; conditions: 48 hpi; rapamycin 20 nM, Torin1 250 nM, LY294002 20 μM
Protocol: FIG. 5. […] Fresh serum-free medium containing drugs was added every other day. At the indicated times, cell-free supernatants were harvested, and the amount of virus in the supernatant was quantified by the TCID50 method. Error bars represent the standard errors of the means form two independent experiments performed in duplicate. […] At 48 hpi the phosphorylation state of the indicated mTORC1 targets was analyzed by a Western blot assay by using antibodies to phosphorylated targets (4EBP1-PT^37/46 and rpS6-PS^235/6) and total proteins. The results are representative of three independent experiments.
The identification of the functional roles of proteins in the mTOR signaling pathway has been facilitated by the generation of knockout mouse strains lacking individual mTOR components. For example, the availability of murine embryonic fibroblasts (MEFs) lacking the essential mTORC2 component Rictor led to the definitive identification of mTORC2 as the kinase complex responsible for the complete activation of Akt. We used murine cytomegalovirus (MCMV) and several MEF lines deficient for mTOR signaling pathway components to test for a possible contribution of mTORC2 to rapamycin-resistant phosphorylation events. […] Also as observed for HCMV (FIG. 4A), MCMV infection induced mTORC1 activity, as measured by the increased phosphorylation of rpS6. […]

HCMV = experiment: Western blot of HCMV proteins (IE1, pUL44, pUL99) in infected fibroblasts; assay type: cell-based, human cytomegalovirus; conditions: 6 to 96 hpi; rapamycin 20 nM, Torin1 250 nM; 3 PFU/cell
Protocol: FIG. 2. […] Serum-starved confluent fibroblasts were infected with HCMV at a multiplicity of 3 PFU/cell. […] Control cultures received the vehicle in which Torin1 was dissolved (NT). At 2 hpi cells were harvested, and cell-associated viral DNA was quantified by real-time PCR analysis. Error bars represent the standard errors of the means from two independent experiments performed in duplicate. […] The level of IE1 was determined at 6 hpi by a Western blot assay using an IE1-specific monoclonal antibody. The image is representative of two independent experiments. […] The expression of a GFP marker gene present in the viral genome was monitored at 24 h after infection in the presence or absence of drug.
FIG. 3. […] (A) Rapamycin-resistant mTOR activity is required for the accumulation of an some but not all HCMV proteins. […] Cells were harvested at the indicated times, and the accumulation of the indicated proteins was analyzed by Western blotting. […] At the indicated times DNA was isolated, and viral DNA was quantified by qPCR. Equivalent amounts of DNA were analyzed for each sample, and the results are normalized to the level of actin DNA per sample. […] At the indicated times the amount of UL99 RNA was determined by qPCR, and the results are normalized to the amount of actin RNA in each sample.
Cells were lysed in radioimmunoprecipitation assay (RIPA) buffer (50 mM Tris-HCl [pH 7.4], […], 0.25% sodium deoxycholate, 150 mM NaCl, 1 mM EDTA) containing protease inhibitors (complete EDTA free; Roche). Protein concentrations in each lysate were determined by the Bradford assay. 30 μg of protein was analyzed per sample. Proteins in cell lysates were resolved on SDS-containing 10% polyacrylamide gels. Proteins were transferred onto Protran membranes by using a semidry transfer apparatus. […]
Antibodies to pUL99 have been described previously (Silva, et al. J. Virol. (2003) 77:10594-10605). In addition, accumulation of HCMV DNA was monitored following infection using the methods described above.

eIF4F complex = experiment: m7GTP-Sepharose cap-binding assay, HCMV-infected fibroblasts; assay type: cell-based, human; conditions: rapamycin 20 nM, Torin1 250 nM
Protocol: FIG. 4. Rapamycin-resistant mTOR activity is required for 4EBP1 phosphorylation and eIF4F complex integrity during HCMV infection. Serum-starved confluent human fibroblasts were infected with HCMV at a multiplicity of 3 PFU/cell. […] (A) At 48 hpi the phosphorylation status of mTORC1 targets was assessed by Western blot assay by using antibodies to phosphorylated targets (4EBP1-PT^37/46 and rpS6-PS^235/6) and total proteins. Tubulin was assayed as a loading control. (B) Same as above (A) except that cells were harvested at the indicated times. (C and D) After mock infection (M) or infection with HCMV (WT) at a multiplicity of 3 PFU/cell, cultures were harvested at the indicated times. Equivalent amounts of protein from each sample were incubated with m^7GTP-Sepharose, and the isolated protein complexes were analyzed by Western blotting using the indicated antibodies to the eIF4F complex and 4EBP1. In all cases the results are representative of at least two independent experiments. lys, lysate.
The phosphorylation status of 4EBP1 regulates cap-dependent protein translation. Hypophosphorylated 4EBP1 binds to eIF4E and inhibits the formation of the eIF4F complex, while the phosphorylation of 4EBP1 inhibits its interaction with eIF4E. […]

`CCC(=O)N1CCN(c2ccc(-n3c(=O)ccc4cnc5ccc(-c6cnc7ccccc7c6)cc5c43)cc2C(F)(F)F)CC1` [Torin1] was tested, and the “phosphorylation of rpS6 in MCMV-infected MEFs” value (rpS6) was “completely inhibited”, the “accumulation of early protein pUL44” value (HCMV) was “inhibited the accumulation of IE1 and pUL44 to a limited extent” and the “accumulation of immediate-early protein IE1” value (HCMV) was “inhibited the accumulation of IE1 and pUL44 to a limited extent”. For the same molecule, the “accumulation of late protein pUL99” value (HCMV) was “dramatically reduced”, the “association of 4EBP1 with m7GTP-Sepharose” value (eIF4F complex) was “substantially increased association” and the “association of eIF4G and eIF4A with the cap analog” value (eIF4F complex) was “reduced association”.

From patent US20180185374A1, “INHIBITORS OF MTOR KINASE AS ANTI-VIRAL AGENTS” (THE TRUSTEES OF PRINCETON UNIVERSITY, priority 2009, published 2018)
